Measurements: publication PMC10077692, “Phytochemical profile, comparative evaluation of Satureja montana alcoholic extract for antioxidants, anti-inflammatory and molecular docking studies” (BMC Complementary Medicine and Therapies, 2023)

System: MDA
Experiment: In-vitro antioxidant assay, MDA
Assay type: biochemical
Protocol: The enzymatic assays of COXs, LOX, TAC, Catalase, MDA, GSH, SOD, TNF -α, and MPO were determined colorimetrically as mentioned previously in reports.
Microsoft Excel 2010 program. All the data in Table 4 was represented as mean ± SD [23].
Total antioxidant capacity is the measure of the number of free radicals scavenged by a test solution, being used to evaluate the antioxidant capacity of biological samples. […] The standard ascorbic acid results were (19.7, 17.2 and 13.1 IU/ml) for TAC, Catalase and SOD, respectively.

SMILES: O=C1O[C@H]([C@@H](O)CO)C(O)=C1O [ascorbic acid]
- MDA level: 15.3 µg/mL
